Test results as given in patent EP1169036B1, “ANTI-VIRAL USES OF LEFLUNOMIDE PRODUCTS” (priority 1998, dated 1999).
Where two headings read alike, the source gives them in different places.

How the values were obtained:
[1] = tested on: Madin Darby canine kidney (MDCK) cells; test: cells; format: cell-based; details: Canis lupus familiaris, cytotoxic concentration, positive control drug = ribavirin, read-out: CPE Inhibition test IC50
CMV strain VHL/E = test: Transmission electron microscopy of virion morphology in CMV-infected HUVEC; format: cell-based; details: 200 µM A771726, 4-7 days
Experimental: Transmission electron microscopy.was employed to directly examine virion morphology within A771726-treated or untreated CMV-infected HUVEC. HUVEC monolayers in 6-well culture plates were inoculated with CMV strain VHL/E (1.0 PFU/cell) in the presence or absence of 200 µM A771726 as described above, and incubated for 4-7 days. Cells were harvested by brief trypsin digestion, washed twice in PBS, then fixed by the.addition of 1 ml 2% phosphate buffered gluteraldehyde and again pelleted by centrifugation. Specimens were post-fixed in 1% phosphate buffered osmium tetroxide (1 hour), then dehydrated in graded ethanol washes. Specimens were embedded in Spur low viscosity embedding media (SEM). Blocks were cured for a minimum of 12 hours at 70°C. Thin sections (approximately 100 nm) were cut from cured blocks using an ultramicrotome (LKB Nova), and mounted on 200 mesh copper grids. Grids were heavy metal-stained using a standard two-step uranyl acetate/lead citrate technique, then examined and photographed at 80 kV with a Zeiss EM900 transmission electron microscope by an individual with no knowledge of the nature of the investigation.

[2] = tested on: human lung carcinoma (A549) cells; test: cells; format: cell-based; details: read-out: Neutral Red Uptake test IC50
HSV = test: Transmission electron microscopy of virion morphology in HSV-infected HUVEC; format: cell-based
uninfected cells [3] = test: Cytotoxicity, neutral red uptake by toxicity control cells (rhinovirus host cells, not named); format: cell-based; details: read-out: Neutral Red Uptake test IC50
Experimental: (§1) Cytotoxicity of each test compound is also evaluated as follows. In the initial CPE inhibition tests, two wells of uninfected cells treated with each concentration of test compound are run in parallel with the infected, treated wells. When the CPE is determined microscopically, the toxicity control cells are also examined microscopically for any changes in cell appearance compared to normal uninfected, untreated control cells. Changes, which may manifest as enlargement, granularity, ragged edges, filmy appearance, rounding, detachment from the surface of the well, or other changes, are given a designation of T (100% toxic), PVH (partially toxic-very heavy-80%), PH (partially toxic-heavy-60%), P (partially toxic-40%), PS (partially toxic-slight-20%) or 0 (no toxicity-0%) in accordance with the degree of cytotoxicity observed. […] A neutral red IC50 is also determined based on uptake of neutral red dye by the toxicity control cells.

[4] = tested on: African green monkey kidney (MA-104) cells; test: cells; format: cell-based; details: Chlorocebus sabaeus, MA104, cytotoxic concentration, positive control drug = ribavirin, read-out: CPE Inhibition test IC50
[5] = tested on: African green monkey kidney (CV-1) cells; test: cells; format: cell-based; details: Chlorocebus sabaeus, read-out: CPE Inhibition test IC50
[6] = tested on: African green monkey kidney (MA-104) cells; test: Cytotoxicity, neutral red uptake by toxicity control cells; format: cell-based; details: Chlorocebus sabaeus, MA104, cytotoxic concentration, positive control drug = ribavirin, read-out: Neutral Red Uptake test IC50
[7] = tested on: viral immediate early (IE1) or late glycoprotein (gB) mRNA; test: Northern blot of viral mRNA in infected HUVEC; format: cell-based, CMV; details: 200 µM A771726, 48 hours
Experimental: Northern blot analysis was employed to determine whether A771726 quantitatively affected transcription of viral immediate early (IE1) or late glycoprotein (gB) mRNA.
HUVEC monolayers in 6-well culture plates were inoculated with CMV strain VHL/E (0.5 PFU/cell) in the presence or absence of 200 µM A771726 and/or 200 µM uridine (6 wells/treatment) as described above, and incubated for 48 hours. […] Total cytoplasmic RNA was isolated from each culture, by 18-hour ultracentrifugation of guanidine isothiocyanate/BME extracts overlayed on cesium chloride cushions. […] 50 ng of full-length IE1 and gB were incubated in a 50 µl PCR reaction including a nucleotide triphosphate mix containing 700 nM α-[^32P]dCTP (Amersham) and either IE1 primers [IE1 sense: 5' […] 3' (SEQ ID NO: 1) and IE1 antisense: 5'[…] 3' (SEQ ID NO: 2)] or gB primers [gB sense: 5 […] 3' (SEQ ID NO: 3) and gB antisense: 5' […] 3' (SEQ ID NO: 4)]. A cDNA probe for GAPDH was radiolabelled using a random priming kit (Decaprime II, Ambion, Inc., Austin TX) as previously described. […] Membranes were hybridized, washed, and bound probe was detected by autoradiography as previously described. Membranes were stripped and reprobed for GAPDH, and scanning densitometry was used to quantitate IE1 and gB band densities, and to normalize these values to those of GAPDH.

uninfected cells [8] = test: Cytotoxicity, microscopic reading of uninfected cells in the CPE inhibition test (rhinovirus host cells, not named); format: cell-based
Experimental: as §1

HSV DNA polymerase = target: T1, HSV DNA polymerase (Human herpesvirus 1, UniProt P04293); test: HSV DNA polymerase biochemical assay; details: all HSV isolates in VERO cells and HUVEC
T1 construct: a biochemical assay of HSV DNA polymerase activity in HSV-infected cells; endogenous in cells
T1 sequence (P10226 whole entry): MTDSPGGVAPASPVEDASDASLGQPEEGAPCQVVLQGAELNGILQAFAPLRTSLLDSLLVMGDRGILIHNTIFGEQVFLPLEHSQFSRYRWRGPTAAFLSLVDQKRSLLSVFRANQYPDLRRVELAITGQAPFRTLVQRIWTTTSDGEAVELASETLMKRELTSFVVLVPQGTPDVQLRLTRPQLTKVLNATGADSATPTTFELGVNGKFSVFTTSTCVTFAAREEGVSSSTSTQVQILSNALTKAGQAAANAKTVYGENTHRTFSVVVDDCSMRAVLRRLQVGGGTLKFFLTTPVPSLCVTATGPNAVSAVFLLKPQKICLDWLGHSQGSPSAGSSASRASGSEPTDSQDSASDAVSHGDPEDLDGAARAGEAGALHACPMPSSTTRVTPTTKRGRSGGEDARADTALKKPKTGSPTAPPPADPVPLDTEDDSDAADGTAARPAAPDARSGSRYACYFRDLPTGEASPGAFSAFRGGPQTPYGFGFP
T1 sequence (P04293 whole entry): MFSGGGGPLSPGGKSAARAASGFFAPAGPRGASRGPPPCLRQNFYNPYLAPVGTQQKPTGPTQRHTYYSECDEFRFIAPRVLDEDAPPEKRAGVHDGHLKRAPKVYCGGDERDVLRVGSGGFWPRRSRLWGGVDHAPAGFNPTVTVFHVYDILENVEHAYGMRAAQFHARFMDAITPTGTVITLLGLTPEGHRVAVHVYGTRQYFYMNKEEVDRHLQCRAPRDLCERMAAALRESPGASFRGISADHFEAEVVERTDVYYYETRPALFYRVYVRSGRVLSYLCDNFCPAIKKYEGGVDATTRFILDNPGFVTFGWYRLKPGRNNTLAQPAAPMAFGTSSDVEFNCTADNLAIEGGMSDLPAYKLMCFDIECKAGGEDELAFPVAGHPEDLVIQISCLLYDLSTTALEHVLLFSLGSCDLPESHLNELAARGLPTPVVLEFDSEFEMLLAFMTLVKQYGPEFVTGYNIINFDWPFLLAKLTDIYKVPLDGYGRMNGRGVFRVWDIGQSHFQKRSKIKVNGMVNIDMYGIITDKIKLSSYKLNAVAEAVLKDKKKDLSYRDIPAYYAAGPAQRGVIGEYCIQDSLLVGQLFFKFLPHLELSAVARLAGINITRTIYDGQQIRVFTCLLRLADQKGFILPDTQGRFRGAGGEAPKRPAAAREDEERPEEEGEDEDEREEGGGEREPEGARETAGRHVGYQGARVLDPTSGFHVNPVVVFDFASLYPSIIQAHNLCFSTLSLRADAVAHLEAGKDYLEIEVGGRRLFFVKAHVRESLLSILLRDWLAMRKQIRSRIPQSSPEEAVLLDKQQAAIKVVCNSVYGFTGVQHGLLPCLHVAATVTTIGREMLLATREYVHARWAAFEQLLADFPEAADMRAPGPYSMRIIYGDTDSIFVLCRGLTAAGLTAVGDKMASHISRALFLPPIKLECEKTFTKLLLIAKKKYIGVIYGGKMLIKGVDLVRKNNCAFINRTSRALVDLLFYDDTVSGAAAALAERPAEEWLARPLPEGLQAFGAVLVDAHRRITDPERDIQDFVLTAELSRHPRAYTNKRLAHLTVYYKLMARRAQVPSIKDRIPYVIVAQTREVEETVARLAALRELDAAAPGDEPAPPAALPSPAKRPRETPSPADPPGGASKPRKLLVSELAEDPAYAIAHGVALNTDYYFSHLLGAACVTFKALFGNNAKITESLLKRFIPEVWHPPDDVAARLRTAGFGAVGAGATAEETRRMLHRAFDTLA

[9] = run with Parainfluenza Type 3 Virus
[10] = run with Respiratory Syncytial Virus A

**Q.** For `C/C(O)=C(\C#N)C(=O)Nc1ccc(C(F)(F)F)cc1` [Compound A771726, N-(4-trifluoromethylphenyl)-2-cyano-3-hydroxycrotonamide], which IC50 ([1]; run with Influenza A (H1N1)) is on record?
**A.** 29 µM

**Q.** What about the IC50 ([1]; run with Influenza A (H3N2)) of the same compound?
**A.** 30 µM

**Q.** What about the IC50 ([1]; run with Influenza B) of the same compound?
**A.** 50 µM

**Q.** What about the “virion morphology in the cytoplasm” value (CMV strain VHL/E) of the same compound?
**A.** viral particles appeared not to have matured far beyond the 100 nM naked capsid stage

**Q.** What about the IC50 [2] of the same compound?
**A.** 580 µM

**Q.** And the “virion morphology, tegument acquisition” value (HSV)?
**A.** appear not to acquire tegument

**Q.** What about the IC50 (uninfected cells [3]) of the same compound?
**A.** 500 µM

**Q.** And the IC50 [4, 9]?
**A.** 30 µM

**Q.** What about the IC50 [4, 10] of the same compound?
**A.** 20 µM

**Q.** What about the IC50 [5] of the same compound?
**A.** > 660 µM

**Q.** And the IC50 [6, 9]?
**A.** 50 µM

**Q.** What about the IC50 [6, 10] of the same compound?
**A.** 143 µM

**Q.** And the “transcription of IE1 or gB genes” value [7]?
**A.** no inhibitory effect

**Q.** And the IC50 (uninfected cells [8])?
**A.** 1000 µM

**Q.** And the “HSV DNA polymerase activity” value (HSV DNA polymerase)?
**A.** no detectable inhibitory effect
